The values that follow come from patent publication USRE48253E1, “Methotrexate adjuvants to reduce toxicity and methods for using the same” (Tosk, Inc., priority 2008, dated 2020).

One data set deals with CCRF-CEM cells. Nature of the data set: Cell Culture Study I: MTX cytotoxicity, alamarBlue. Format: cell-based, human. The following applies: 72 hours. The procedure:
In this study, CCRF-CEM cells purchased from ATCC were cultured and then 12 tubes containing approximately 10^6 cells each treated for 72 hours with media (Group1), MTX 0.03 μM (Group2), MTX+Leucovorin 1 μM (Group3), MTX+Leucovorin 10 μM (Group4), MTX+Leucovorin 100 μM (Group5), MTX+TK-112690 1 μM (Group6), MTX+TK-112690 10 μM (Group7) and MTX+TK-112690 100 μM (Group8). […] Viability was measured as percent reduction of alamarBlue absorbance.
The tumor cell line CCR-CEM (human T-cell acute lymphoblastic leukemia) is obtained from American Type Culture Collection (CRL-1593.2) and cultured in accordance with the product information sheet with the following exceptions: 55.3 cm^2 Petri dishes are used instead of 75 cm^2 culture flasks, and 1% penicillin-streptomycin solution (HyClone SV30010) and 1% GlutaMAX™ (Gibco 35050) are added to the culture medium.
TK-112690, the representative 2,2′-anhydropyrimidine test article, is dissolved in 40% DMSO, sterile filtered then diluted with sterile distilled water to obtain initial working solutions of 10, 100 and 1000 μM. In testing, a 100 fold dilution is made in culture media to give final assay concentrations of 0.1, 1.0 and 10.0 μM. MTX (SAFC Biosciences M8407) is dissolved in sterile distilled water and 5 N NaOH then sterile filtered. The final pH of the stock solution is 7.8 and working solutions are made with sterile distilled water for final assay concentrations of 30, 3.0, 0.3, 0.03 and 0.003 μM. Leucovorin (Sigma F-7878) is dissolved in sterile distilled water, sterile filtered and diluted with sterile distilled water for final assay concentrations of 0.1, 1.0 and 10.0 μM.
Aliquots of 100 μL of cell suspension are plated in 96 well microtiter plates (Corning costar 3595) and placed in an atmosphere of 5% CO2 at 37° C. (Fisher Scientific Isotemp 3500 CO2 Incubator). After 24 hours, 100 μL of growth medium [RPMI-1640 w/L-glutamine (Cambrex 12-702Q) fortified with sodium pyruvate (HyClone SH30239.01), fetal bovine serum (SAFC Biosciences 12107C) and HEPES buffer (Gibco 15630)] and 2 μL of test solution or vehicle are added respectively per well and the plates incubated for an additional 72 hour incubation. MTX is evaluated at concentrations of 0.003, 0.03, 0.30 and 3.0 μM alone or in combination with either a 2,2′-anhydropyrimidine test article or Leucovorin at concentrations of 0.1, 1.0, 10.0 μM. At the end of incubation, the efficacy of anti-cell proliferation is determined by optical absorbance at λ=570 and 600 nm [Spectramax 250 (Molecular Devices)] in accordance with the standard alamarBlue™ (Biosource) protocol.
Group 1 is the cell control (media treated). Group 2 corresponds to cells treated with 0.03 μM MTX. Group 3 are cells treated with 1.0 μM Leucovorin. Group 4 are cells treated with 0.1 μM Leucovorin. Group 5 are cells treated with 10 μM TK-112690. Group 6 are cells treated with MTX+10 μM TK-112690. Group 7 are cells treated with MTX+1.0 μM TK-112690. Group 8 MTX+0.1 μM TK-112690.

Data set [1] has as its target mouse small intestinal UPase enzyme (Mus musculus, UniProt P52624). Nature of the data set: UPase inhibition in mouse small intestinal tissue homogenate (HPLC of uracil). Format: biochemical. The procedure: A range of TK-112690 doses were studied for the their ability to prevent metabolic breakdown of uridine through the in vitro inhibition of mouse and human small intestinal UPase enzyme. UPase activity was determined by HPLC analysis using UV detection of uracil concentration (UPase catabolizes uridine into uracil and ribose-1-phosphate). The UPase enzyme material was prepared from homogenized mouse and human being small intestinal tissue. TK-112690 was dissolved in water (50 mg/ml) and analyzed for UPase inhibition in aqueous solution containing 5 mM uridine, 0.01 M Tris, 0.01 M phosphate, 1 mM EDTA, and 1 mM DTT. Reactions were performed at 37° C. at pH of 7.3.
The aim of this study was to evaluate TK-112690 […] as an inhibitor of uridine phosphorylase (UPase) enzyme activity. The range of TK-112690 doses studied for ability to prevent metabolic breakdown of uridine, through the in vitro inhibition of mouse and human small intestinal UPase enzyme, was 0, 0.1, 0.5, 1, 5, 10, 50, 100, 500, 1000, 5000 and 10000 μM). Detection of UPase activity was determined by HPLC analysis using UV detection of uracil concentration (UPase catabolizes uridine into uracil and ribose-1-phosphate).
The UPase enzyme material was prepared from homogenized mouse and human being small intestinal tissue. TK-112690 was dissolved in water (50 mg/ml) and analyzed for UPase inhibition in aqueous solution containing 5 mM uridine, 0.01 M Tris, 0.01 M phosphate, 1 mM EDTA, and 1 mM DTT. Reactions were performed at 37° C. at pH of 7.3.
TK-11260 inhibition of mouse and human UPase was analyzed by reverse phase HPLC using UV detection. HPLC analysis was performed at ambient temperature with a Water 2695 Alliance system equipped with a C18 ECONOSIL 5 U ALLtech column. 20 μl of UPase reaction samples were auto-injected onto column. Mobile phase consisted of water eluting for first 2.5 ml and acetonitrile gradient to 100% in 12.5 ml (flow rate 0.5 ml/min). The outlet fluent was monitored by UV absorption in the range of 240-320 nm. UPase enzymatic activity was based on the AUC of the uracil peaks.

In another data set the test system is Drosophila melanogaster. Nature of the data set: Fly Study I: protection from MTX-induced lethality. It counts as in vivo. The conditions noted are these: with MTX 0.4 mg; TK-112690 0.005 to 0.1 mg. The procedure: In this study, Drosophila melanogaster eggs (50 eggs per vial) were treated with either 0.005 mg TK-112690+0.4 mg MTX (Group 1), 0.01 mg TK-112690+0.4 mg MTX (Group 2), 0.04 mg TK-112690+0.4 mg MTX (Group 3), 0.1 mg TK-112690+0.4 mg MTX (Group 4), 0.4 mg MTX alone (Group 5) or saline blank (Group 6). Two vials of eggs for each dose group were evaluated for viability (viable flies plus pupae).
The efficacy of cancer chemotherapy can be improved if agents are available to reduce the adverse events associated with treatment with cytotoxic agents. To this end, Drosophila melanogaster (commonly know as the fruit fly) is an ideal organism to screen chemical compounds for such side-effect-reducing agents. This study is aimed at finding a dose of a 2,2′-anhydropyrimidine test article that protects against MTX-induced lethality in insects.
Increasing amounts of a 2,2′-anhydropyrimidine test article (typically 0.03 to 0.1 mg) are mixed in an aqueous solution with 0.3 (or 0.4) mg MTX. Four milliliters (mL) of a 2,2′-anhydropyrimidine test article+MTX solutions are added to an appropriate amount of instant fly medium. Fruit fly eggs are added to a 2,2′-anhydropyrimidine test article+MTX treated medium and incubated for up to 31 days. After the 31 day incubation, each assay is scored by the number of mature fly and pupae per vial.
The assays are set up in clear sterile polystyrene narrow diameter vials from Applied Scientific (Hampton, N.H.). Vials are stored in trays and incubated in a darkened 25° C. incubator.
Reagents and materials used are: 50 mg/mL MTX in H2O (pH 8), 20 mg/mL of the 2,2′-anhydropyrimidine test article in H2O, water, sterile polystyrene narrow diameter vials from Applied Scientific, Instant Drosophila Food Medium, Oregon-R Drosophila melanogaster, 25° C. incubator, and 15 mL polystyrene conical tubes
Each assay is performed in a separate fly vial. […] Pre-measured amounts of instant drosophila medium are added to each assay to achieve optimal hydration level. […] Assays are scored by the number of dead pupae or adult flies per vial.

Where [2] appears, read: Table 3, murine UPase, test method of Experiment IX, read-out: UPase IC50.

Molecules are shown by their SMILES. Read-outs that look alike come from different tables or passages of the source. A value given as a limit tells only on which side of the number the result lay.

Chain of mouse small intestinal UPase enzyme (P52624 whole entry, looked up): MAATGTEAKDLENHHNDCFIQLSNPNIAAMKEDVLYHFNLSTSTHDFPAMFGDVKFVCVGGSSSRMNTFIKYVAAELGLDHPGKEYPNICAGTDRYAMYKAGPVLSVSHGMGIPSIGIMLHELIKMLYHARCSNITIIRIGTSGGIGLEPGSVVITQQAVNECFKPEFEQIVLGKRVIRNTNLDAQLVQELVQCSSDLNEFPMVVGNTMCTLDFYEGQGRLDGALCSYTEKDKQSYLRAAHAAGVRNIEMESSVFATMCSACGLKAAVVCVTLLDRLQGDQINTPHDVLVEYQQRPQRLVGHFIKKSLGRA

In the case of `Nc1nc2c(c(=O)[nH]1)N(C=O)C(CNc1ccc(C(=O)N[C@@H](CCC(=O)O)C(=O)O)cc1)CN2` (some centres unmarked) [Leucovorin], in the data set on CCRF-CEM cells (combined with MTX 0.03 μM), the “effect on MTX cytotoxicity (viability, alamarBlue)” value is “statistically different than Group 2”. In the data set on CCRF-CEM cells (without MTX), the “viability, agent alone vs control” value is “not statistically different than control”.
For the molecule `CCOCc1cn2c(nc1=O)O[C@H]1[C@H](O)[C@@H](CO)O[C@H]12` [TK-000007], the IC50 in data set [1] (setting [2]) was less than 100 µM.
Still for that read-out and setting: the result for `O=c1nc2n(cc1NCc1ccccc1)[C@@H]1O[C@H](CO)[C@@H](O)[C@@H]1O2` [TK-000006] reads less than 100 µM; that for `Cc1cn2c(nc1=O)O[C@H]1[C@H](O)[C@@H](CN=[N+]=[N-])O[C@H]12` [TK-000011], more than 100 µM.
Still for that read-out and setting: the result for `CC(=N)OCc1cn2c(nc1=O)O[C@H]1[C@H](O)[C@@H](CO)O[C@H]12` [TK-000010] reads more than 100 µM.
Consider `COCc1cn2c(nc1=O)O[C@H]1[C@H](O)[C@@H](CO)O[C@H]12` [TK-000009], for which the “protection against MTX-induced lethality in the Fly model” value with Drosophila melanogaster is reported as “active”. Moreover, the IC50 in data set [1] (setting [2]) is less than 100 µM.
Turning to `Cc1ccc(SCc2cn3c(nc2=O)O[C@H]2C(O)[C@@H](CO)O[C@H]23)cc1` (some centres unmarked) [TK-000016], in data set [1] (5 mM uridine, 37° C., pH 7.3, read-out: IC50, mouse small intestinal (murine) UPase), the IC50 was less than 100 µM.
In the case of `Cc1cn2c(nc1=O)O[C@H]1C(O)[C@@H](CF)O[C@H]12` (some centres unmarked) [TK-000015], the IC50 in data set [1] (setting [2]) was more than 100 µM.
Still for that read-out and setting: the result for `O=c1nc2n(cc1COCc1ccccc1)[C@@H]1O[C@H](CO)[C@@H](O)[C@@H]1O2` [TK-000008] reads less than 100 µM.
